Like-named read-outs stand apart in the source and are kept apart here.
Experiments:
P. falciparum Dd2 = test: Flow-cytometry rate of killing assay; assay type: cell-based, Plasmodium falciparum; details: 10 × EC50
PfARK2 [1] = test: Radioactive kinase assay; assay type: biochemical, P. falciparum; details: highest concentration tested 2 μM
PfARK2 [2] = test: ADP-Glo kinase assay; assay type: biochemical, P. falciparum; details: up to 5 μM
[3] = system: Plasmodium falciparum strain 3D7; test: SYBR Green I proliferation assay, asynchronous blood stage, 3D7
[4] = system: Plasmodium falciparum strain Dd2; test: SYBR Green I proliferation assay, asynchronous blood stage, Dd2; assay type: cell-based; details: for EC50: read-out: Pf Dd2 EC50
HepG2 cells = test: Cytotoxicity assay; assay type: cell-based, human; details: for EC50: read-out: HepG2 EC50
Pf NEK3 (PF3D7_1201600) = Pf NEK3 (PF3D7_1201600) (Plasmodium falciparum, UniProt Q8I629); test: biochemical; assay type: binding; details: for remaining activity at 2.5 µM: read-out: % activity remaining at 2.5 μM, NEK3
GSK3 = GSK3 (Plasmodium falciparum, UniProt O77344); test: KinaseSeeker split-luciferase competitive binding assay; parameters: species or system P. falciparum; details: read-out: % activity remaining at 2.5 μM, GSK3
CDPK2 = CDPK2 (Plasmodium falciparum, UniProt Q8ICR0); test: as above; parameters: species or system P. falciparum; details: read-out: % activity remaining at 2.5 μM, CDPK2
Chain of CDPK2 (Q8ICR0 whole entry): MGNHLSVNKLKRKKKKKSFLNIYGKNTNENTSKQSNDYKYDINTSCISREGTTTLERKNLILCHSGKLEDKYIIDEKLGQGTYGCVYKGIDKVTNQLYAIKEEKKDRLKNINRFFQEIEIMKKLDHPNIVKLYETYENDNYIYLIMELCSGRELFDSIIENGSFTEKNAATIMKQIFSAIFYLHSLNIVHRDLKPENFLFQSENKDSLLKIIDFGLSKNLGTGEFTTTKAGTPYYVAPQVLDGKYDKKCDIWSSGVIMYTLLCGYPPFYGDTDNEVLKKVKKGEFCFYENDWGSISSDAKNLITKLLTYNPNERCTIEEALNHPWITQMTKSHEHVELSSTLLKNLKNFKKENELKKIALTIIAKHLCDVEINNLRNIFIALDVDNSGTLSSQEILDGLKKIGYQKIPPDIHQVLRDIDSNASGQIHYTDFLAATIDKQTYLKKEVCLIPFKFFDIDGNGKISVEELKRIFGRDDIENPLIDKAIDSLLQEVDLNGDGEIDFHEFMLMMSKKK

Pf NEK1 = test: as above; parameters: species or system P. falciparum
PK5 = PK5 (Plasmodium falciparum, UniProt P61075); test: as above; parameters: species or system P. falciparum; details: read-out: % activity remaining at 2.5 μM, PK5
Chain of PK5 (P61075 whole entry): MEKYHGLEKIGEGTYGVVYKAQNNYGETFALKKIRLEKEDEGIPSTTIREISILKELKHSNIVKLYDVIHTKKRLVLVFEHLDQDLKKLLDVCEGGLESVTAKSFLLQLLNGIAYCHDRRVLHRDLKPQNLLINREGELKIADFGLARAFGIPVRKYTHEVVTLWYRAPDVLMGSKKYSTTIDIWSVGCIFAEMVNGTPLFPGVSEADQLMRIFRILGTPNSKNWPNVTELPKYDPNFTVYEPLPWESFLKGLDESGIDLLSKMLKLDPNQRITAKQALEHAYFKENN

PK6 = PK6 (Plasmodium falciparum, UniProt O77239); test: as above; parameters: species or system P. falciparum; details: read-out: % activity remaining at 2.5 μM, PK6
human PLK1 = details: read-out: PLK1 IC50, from prior publication or from Selleck Chemicals ref 15, 16; cited from earlier work
PKB = PKB (Plasmodium falciparum, UniProt Q8I4W3); test: KinaseSeeker split-luciferase competitive binding assay; parameters: species or system P. falciparum; details: read-out: % activity remaining at 2.5 μM, PKB
[5] = system: synchronized Dd2 parasites; test: Stage-specific assay; assay type: cell-based, Plasmodium falciparum; details: 5 × EC50 applied later in the ring stage (18 HPI)
PK9 = test: KinaseSeeker split-luciferase competitive binding assay; parameters: species or system P. falciparum
PfARK1 = test: as above; parameters: species or system P. falciparum
CDPK5 = CDPK5 (Plasmodium falciparum, UniProt A0A5K1K8H0); test: as above; parameters: species or system P. falciparum; details: read-out: % activity remaining at 2.5 μM, CDPK5
Chain of CDPK5 (A0A5K1K8H0 whole entry): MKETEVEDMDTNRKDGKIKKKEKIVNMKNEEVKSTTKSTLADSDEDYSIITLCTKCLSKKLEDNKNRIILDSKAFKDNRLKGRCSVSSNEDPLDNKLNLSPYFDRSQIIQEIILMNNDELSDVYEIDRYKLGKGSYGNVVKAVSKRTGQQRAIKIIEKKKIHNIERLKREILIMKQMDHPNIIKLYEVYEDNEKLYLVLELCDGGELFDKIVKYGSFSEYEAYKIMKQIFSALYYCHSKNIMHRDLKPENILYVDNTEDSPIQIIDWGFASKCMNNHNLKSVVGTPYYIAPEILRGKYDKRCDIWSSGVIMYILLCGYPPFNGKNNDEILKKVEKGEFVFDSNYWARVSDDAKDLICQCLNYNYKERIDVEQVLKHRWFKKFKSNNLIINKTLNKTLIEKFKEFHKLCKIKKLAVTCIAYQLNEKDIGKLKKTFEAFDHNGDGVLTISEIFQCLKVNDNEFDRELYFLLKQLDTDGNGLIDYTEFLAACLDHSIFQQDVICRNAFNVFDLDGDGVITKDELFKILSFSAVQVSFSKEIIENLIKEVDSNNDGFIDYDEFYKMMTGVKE

PfARK3 = test: as above; parameters: species or system P. falciparum
[6] = 3D7, 72 h, read-out: Pf 3D7 EC50
[7] = Plasmodium falciparum, DD2, 72 h
[8] = 72 h, average ± SEM, at least three biological replicates
[9] = 48 h, average ± SEM, at least three biological replicates

## CC[C@@H]1C(=O)N(C)c2cnc(Nc3ccc(C(=O)NC4CCN(C)CC4)cc3OC)nc2N1C1CCCC1 [BI-2536 (1), BI-2536]
P. falciparum Dd2
  compound incubation required for a full killing effect: 24 to 48 h
PfARK2 [1]
  inhibitory effect in PfARK2: neither compound displayed inhibitory effects
PfARK2 [2]
  activity in PfARK2: lack of activity
[3]; [6]
  EC50: 135 ± 35 nM
[3]; 3D7, read-out: EC50, 3D7 clone A10
  EC50: 288 nM
[4]; [7]
  EC50: 178 ± 12 nM
HepG2 cells; Homo sapiens, HepG2, 48 h
  EC50: 3730 ± 520 nM

## CC[C@@H]1C(=O)N(C)c2cnc(Nc3ccc(C(=O)N[C@H]4CC[C@H](N5CCN(CC6CC6)CC5)CC4)cc3OC)nc2N1C(C)C [BI-6727 (11), BI-6727]
Pf NEK3 (PF3D7_1201600)
  IC50: 130 nM
  remaining activity at 2.5 µM: 11.1%
GSK3
  remaining activity at 2.5 µM: 100%
CDPK2
  remaining activity at 2.5 µM: 100%
Pf NEK1
  % activity remaining at 2.5 μM, NEK1: 93.8%
PK5
  remaining activity at 2.5 µM: 100%
PK6
  remaining activity at 2.5 µM: 67.3%
Human PLK1
  IC50: 0.87 nM
P. falciparum Dd2
  compound incubation required for a full killing effect: 24 to 48 h
PKB
  remaining activity at 2.5 µM: 49.3%
[5]
  DNA replication (YOYO-1 signal): delayed increase in the YOYO-1 signal at 54 h
[3]; [6]
  EC50: 284 ± 52 nM
PK9
  % activity remaining at 2.5 μM, PK9: 100.0%
[4]
  Resistance Index (RI) = Dd2 EC50/3D7 EC50: 0.81
[4]; [7]
  EC50: 230 ± 14 nM
PfARK1
  % activity remaining at 2.5 μM, ARK1: 100.0%
HepG2 cells
  Selectivity Index (SI) = HepG2 EC50/Dd2 EC50: 8.0
HepG2 cells; Homo sapiens, HepG2, 48 h
  EC50: 1930 ± 460 nM
CDPK5
  remaining activity at 2.5 µM: 100%
PfARK3
  % activity remaining at 2.5 μM, ARK3: 83.6%

## C[C@@H](Oc1cc(-n2cnc3ccc(CN4CCN(C)CC4)cc32)sc1C(N)=O)c1ccccc1C(F)(F)F [GSK461364 (12), GSK461364]
Pf NEK3 (PF3D7_1201600)
  IC50: 19 nM
  remaining activity at 2.5 µM: 9.7%
GSK3
  remaining activity at 2.5 µM: 100%
CDPK2
  remaining activity at 2.5 µM: 100%
Pf NEK1
  % activity remaining at 2.5 μM, NEK1: 100.0%
PK5
  remaining activity at 2.5 µM: 100%
PK6
  remaining activity at 2.5 µM: 100%
Human PLK1
  IC50: 2.2 nM
P. falciparum Dd2
  compound incubation required for a full killing effect: 24 to 48 h
PKB
  remaining activity at 2.5 µM: 100%
PfARK2 [1]
  inhibitory effect in PfARK2: neither compound displayed inhibitory effects
[3]; [6]
  EC50: 1410 ± 77 nM
PK9
  % activity remaining at 2.5 μM, PK9: 100.0%
[4]; [7]
  EC50: 533 ± 78 nM
PfARK1
  % activity remaining at 2.5 μM, ARK1: 99.5%
HepG2 cells; Homo sapiens, HepG2, 48 h
  EC50: 1910 ± 210 nM
CDPK5
  remaining activity at 2.5 µM: 100%
PfARK3
  % activity remaining at 2.5 μM, ARK3: 96.2%

## COc1cc2ncn(-c3cc(OCc4ccccc4C(F)(F)F)c(C(N)=O)s3)c2cc1OC [GW843682 (17), GW843682]
Human PLK1
  IC50: 2.2 nM
[4]; [8]
  EC50: > 5000 nM
HepG2 cells; [9]
  EC50: > 25000 nM

## Cc1ncc(CCCN(C)C)cc1Nc1ncc2c(n1)-c1ccc(C(F)(F)F)cc1NC(=S)C2 [MLN0905 (13), MLN0905]
Human PLK1
  IC50: 2 nM
[4]; [8]
  EC50: 1820 ± 260 nM
HepG2 cells
  Selectivity Index (SI) = HepG2 EC50/Dd2 EC50: 2.0
HepG2 cells; [9]
  EC50: 3940 ± 110 nM

## CN1CCN(c2ccc(OC(F)(F)F)c(Nc3ncc4c(n3)-c3c(c(C(N)=O)nn3CCO)CC4)c2)CC1 [NMS-P937 (15), NMS-P937]
Human PLK1
  IC50: […]
[4]; [8]
  EC50: > 5000 nM
HepG2 cells
  Selectivity Index (SI) = HepG2 EC50/Dd2 EC50: […]
HepG2 cells; [9]
  EC50: 6010 ± 79 nM

## COc1cc(OC)c(/C=C/S(=O)(=O)Cc2ccc(OC)c(NCC(=O)O)c2)c(OC)c1 [ON-01910 (16), ON-01910]
Human PLK1
  IC50: […]
[4]; [7]
  EC50: > 5000 nM
HepG2 cells
  Selectivity Index (SI) = HepG2 EC50/Dd2 EC50: […]
HepG2 cells; Homo sapiens, HepG2, 48 h
  EC50: 11900 nM

## Nc1ccc(-c2ccc3ncc4ccc(=O)n(-c5cccc(C(F)(F)F)c5)c4c3c2)cn1 [torin2]
[4]; [8]
  EC50: 5.3 ± 0.3 nM

## SBE 13 [SBE 13 (14)]
Human PLK1
  IC50: 0.2 nM
[4]; [8]
  EC50: 3570 ± 130 nM
HepG2 cells
  Selectivity Index (SI) = HepG2 EC50/Dd2 EC50: >7.0
HepG2 cells; [9]
  EC50: > 25000 nM

Source: publication PMC10106425 (ACS infectious diseases, 2023)
